Target: T1, human OX2 receptor (Homo sapiens, UniProt O43614)
T1 construct: expressed in transfected cells
T1 sequence (O43614 1-444): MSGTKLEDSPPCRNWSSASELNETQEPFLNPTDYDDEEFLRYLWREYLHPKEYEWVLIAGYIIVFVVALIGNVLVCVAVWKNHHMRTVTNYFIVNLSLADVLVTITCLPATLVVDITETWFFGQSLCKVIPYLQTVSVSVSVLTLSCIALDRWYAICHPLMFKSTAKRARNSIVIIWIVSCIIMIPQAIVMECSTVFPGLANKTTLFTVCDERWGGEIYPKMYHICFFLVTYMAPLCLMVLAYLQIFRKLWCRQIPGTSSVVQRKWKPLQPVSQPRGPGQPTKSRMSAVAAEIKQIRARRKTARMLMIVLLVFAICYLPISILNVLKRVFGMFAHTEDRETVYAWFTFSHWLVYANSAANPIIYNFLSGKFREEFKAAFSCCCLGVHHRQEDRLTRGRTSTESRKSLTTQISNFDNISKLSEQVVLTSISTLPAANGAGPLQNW
Assay: Measurement of orexin type 2 receptor agonist activity (calcium fluorescence, Fluo-4 AM, FDSS)
Format: cell-based
Conditions: compound at 3 μM; CHO cells forcibly expressing human OX2 receptor; DMSO = 0%, 10 nM orexin A (human) = 100%
Summary of the method: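 CHO-K1 cells stably expressing human OX2 receptor (residues 1-444) loaded with Fluo-4 AM in HBSS/20 mM HEPES/0.1% BSA with probenecid, 30 min at 37° C. then 30 min at room temperature. After compound addition, calcium fluorescence read for 1 min 40 s; activity (%) scaled to DMSO (0%) and 10 nM orexin A (100%).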

SMILES	OX2R agonist activity (3 μM, %) [%]
Cc1ccc(C2CC(N3C[C@@H](NS(C)(=O)=O)C(F)(F)C3)=NO2)c(-c2ncc(F)cc2F)c1 (stereo partly drawn) [Example 106, N-[(3R)-1-{5-[2-(3,5-difluoropyridin-2-yl)-4-methylphenyl]-4,5-dihydro-1,2-oxazol-3-yl}-4,4-difluoropyrrolidin-3-yl]methanesulfonamide]	108
Cc1cnc(C2(CF)CC(N3C[C@@H](NS(C)(=O)=O)C(F)(F)C3)=NO2)c(-c2c(F)cccc2F)c1 (stereo partly drawn) [Example 108, N-[(3R)-1-{5-[3-(2,6-difluorophenyl)-5-methylpyridin-2-yl]-5-(fluoromethyl)-4,5-dihydro-1,2-oxazol-3-yl}-4,4-difluoropyrrolidin-3-yl]methanesulfonamide]	105
Cc1cnc(C2(CF)CC(N3C[C@H](F)[C@H](NS(C)(=O)=O)C3)=NO2)c(-c2c(F)cc(F)cc2F)c1 (stereo partly drawn) [Example 110, N-[(3R,4S)-4-fluoro-1-{5-(fluoromethyl)-5-[5-methyl-3-(2,4,6-trifluorophenyl)pyridin-2-yl]-4,5-dihydro-1,2-oxazol-3-yl}pyrrolidin-3-yl]methanesulfonamide]	100
CS(=O)(=O)N[C@@H]1CN(C2=NOC(c3ccc(F)cc3-c3c(F)cccc3F)C2)CC1(F)F (stereo partly drawn) [Example 111, N-{(3R)-4,4-difluoro-1-[5-(2′,5,6′-trifluoro[1,1′-biphenyl]-2-yl)-4,5-dihydro-1,2-oxazol-3-yl]pyrrolidin-3-yl}methanesulfonamide]	102
CS(=O)(=O)N[C@@H]1CN(C2=NOC(c3ncc(Cl)cc3-c3c(F)cc(F)cc3F)C2)C[C@@H]1F (stereo partly drawn) [Example 112, N-[(3R,4S)-1-{5-[5-chloro-3-(2,4,6-trifluorophenyl)pyridin-2-yl]-4,5-dihydro-1,2-oxazol-3-yl}-4-fluoropyrrolidin-3-yl]methanesulfonamide]	98
CS(=O)(=O)N[C@@H]1CN(C2=NOC(CF)(c3ncc(F)cc3-c3c(F)cc(F)cc3F)C2)C[C@@H]1F (stereo partly drawn) [Example 113, N-[(3R,4S)-4-fluoro-1-{5-(fluoromethyl)-5-[5-fluoro-3-(2,4,6-trifluorophenyl)pyridin-2-yl]-4,5-dihydro-1,2-oxazol-3-yl}pyrrolidin-3-yl]methanesulfonamide]	100
Cc1ccc(C2CC(N3C[C@@H](NS(C)(=O)=O)C(F)(F)C3)=NO2)c(-c2c(F)cccc2F)n1 (stereo partly drawn) [Example 114, N-[(3R)-1-{5-[2-(2,6-difluorophenyl)-6-methylpyridin-3-yl]-4,5-dihydro-1,2-oxazol-3-yl}-4,4-difluoropyrrolidin-3-yl]methanesulfonamide]	87
CCS(=O)(=O)N[C@@H]1CN(C2=NOC(CF)(c3ncc(Cl)cc3-c3c(F)cccc3F)C2)C[C@@H]1F (stereo partly drawn) [Example 115, N-[(3R,4S)-1-{5-[5-chloro-3-(2,6-difluorophenyl)pyridin-2-yl]-5-(fluoromethyl)-4,5-dihydro-1,2-oxazol-3-yl}-4-fluoropyrrolidin-3-yl]ethanesulfonamide]	100
CS(=O)(=O)N[C@@H]1CN(C2=NOC(CF)(c3ncc(F)cc3-c3c(F)cccc3F)C2)C[C@@H]1F (stereo partly drawn) [Example 116, N-[(3R,4S)-1-{5-[3-(2,6-difluorophenyl)-5-fluoropyridin-2-yl]-5-(fluoromethyl)-4,5-dihydro-1,2-oxazol-3-yl}-4-fluoropyrrolidin-3-yl]methanesulfonamide]	100
CC1(c2ncc(F)cc2-c2c(F)cccc2F)CC(N2C[C@H](F)[C@H](NS(C)(=O)=O)C2)=NO1 (stereo partly drawn) [Example 118, N-[(3R,4S)-1-{5-[3-(2,6-difluorophenyl)-5-fluoropyridin-2-yl]-5-methyl-4,5-dihydro-1,2-oxazol-3-yl}-4-fluoropyrrolidin-3-yl]methanesulfonamide]	100
CS(=O)(=O)N[C@@H]1CN(C2=NOC(c3ccc(F)cc3-c3c(F)cccc3F)C2)C[C@@H]1F (stereo partly drawn) [Example 119, N-{(3R,4S)-4-fluoro-1-[5-(2′,5,6′-trifluoro[1,1′-biphenyl]-2-yl)-4,5-dihydro-1,2-oxazol-3-yl]pyrrolidin-3-yl}methanesulfonamide]	101
CN(C)S(=O)(=O)N[C@@H]1CN(C2=NOC(c3ncc(F)cc3-c3c(F)cc(F)cc3F)C2)C[C@@H]1F (stereo partly drawn) [Example 120, N′-[(3R,4S)-4-fluoro-1-{5-[5-fluoro-3-(2,4,6-trifluorophenyl)pyridin-2-yl]-4,5-dihydro-1,2-oxazol-3-yl}pyrrolidin-3-yl]-N,N-dimethylsulfuric diamide]	102
CN(C)S(=O)(=O)N[C@@H]1CN(C2=NOC(c3ncc(Cl)cc3-c3c(F)cccc3F)C2)C[C@@H]1F (stereo partly drawn) [Example 121, N′-[(3R,4S)-1-{5-[5-chloro-3-(2,6-difluorophenyl)pyridin-2-yl]-4,5-dihydro-1,2-oxazol-3-yl}-4-fluoropyrrolidin-3-yl]-N,N-dimethylsulfuric diamide]	98
CC1(c2ncc(F)cc2-c2c(F)cccc2F)CC(N2CC[C@H](NS(C)(=O)=O)C2)=NO1 (stereo partly drawn) [Example 122, N-[(3S)-1-{5-[3-(2,6-difluorophenyl)-5-fluoropyridin-2-yl]-5-methyl-4,5-dihydro-1,2-oxazol-3-yl}pyrrolidin-3-yl]methanesulfonamide]	102
CN(C)S(=O)(=O)N[C@@H]1CN(C2=NOC(c3ccc(Cl)cc3-c3ncc(F)cc3F)C2)C[C@@H]1F (stereo partly drawn) [Example 123, N′-[(3R,4S)-1-{5-[4-chloro-2-(3,5-difluoropyridin-2-yl)phenyl]-4,5-dihydro-1,2-oxazol-3-yl}-4-fluoropyrrolidin-3-yl]-N,N-dimethylsulfuric diamide]	100
Cc1ccc(C2CC(N3C[C@H](F)[C@H](NS(C)(=O)=O)C3)=NO2)c(-c2ncc(F)cc2F)c1 (stereo partly drawn) [Example 124, N-[(3R,4S)-1-{5-[2-(3,5-difluoropyridin-2-yl)-4-methylphenyl]-4,5-dihydro-1,2-oxazol-3-yl}-4-fluoropyrrolidin-3-yl]methanesulfonamide]	97
Cc1ccc(C2CC(N3C[C@H](F)[C@H](NS(=O)(=O)N(C)C)C3)=NO2)c(-c2ncc(F)cc2F)c1 (stereo partly drawn) [Example 125, N′-[(3R,4S)-1-{5-[2-(3,5-difluoropyridin-2-yl)-4-methylphenyl]-4,5-dihydro-1,2-oxazol-3-yl}-4-fluoropyrrolidin-3-yl]-N,N-dimethylsulfuric diamide]	104
CS(=O)(=O)N[C@@H]1CN(C2=NOC(c3ncc(F)cc3-c3c(F)cccc3F)(C(F)F)C2)CC1(F)F (stereo partly drawn) [Example 126, N-[(3R)-1-{5-(difluoromethyl)-5-[3-(2,6-difluorophenyl)-5-fluoropyridin-2-yl]-4,5-dihydro-1,2-oxazol-3-yl}-4,4-difluoropyrrolidin-3-yl]methanesulfonamide]	98
Cc1cc(-c2c(F)cccc2F)c(C2CC(N3C[C@@H](NS(C)(=O)=O)C(F)(F)C3)=NO2)cn1 (stereo partly drawn) [Example 127, N-[(3R)-1-{5-[4-(2,6-difluorophenyl)-6-methylpyridin-3-yl]-4,5-dihydro-1,2-oxazol-3-yl}-4,4-difluoropyrrolidin-3-yl]methanesulfonamide]	100
O=S(=O)(CF)N[C@@H]1CN(C2=NO[C@H](c3ncc(F)cc3-c3c(F)cc(F)cc3F)C2)CC1(F)F [Example 128, N-[(3R)-4,4-difluoro-1-{(5S)-5-[5-fluoro-3-(2,4,6-trifluorophenyl)pyridin-2-yl]-4,5-dihydro-1,2-oxazol-3-yl}pyrrolidin-3-yl]-1-fluoromethanesulfonamide]	105
CS(=O)(=O)N[C@@H]1CN(C2=NOC(CF)(c3ncc(Cl)cc3-c3c(F)cccc3F)C2)C[C@@H]1F (stereo partly drawn) [Example 129, N-[(3R,4S)-1-{5-[5-chloro-3-(2,6-difluorophenyl)pyridin-2-yl]-5-(fluoromethyl)-4,5-dihydro-1,2-oxazol-3-yl}-4-fluoropyrrolidin-3-yl]methanesulfonamide]	102
CCC1(c2ncc(F)cc2-c2c(F)cccc2F)CC(N2C[C@@H](NS(C)(=O)=O)C(F)(F)C2)=NO1 (stereo partly drawn) [Example 130, N-[(3R)-1-{5-[3-(2,6-difluorophenyl)-5-fluoropyridin-2-yl]-5-ethyl-4,5-dihydro-1,2-oxazol-3-yl}-4,4-difluoropyrrolidin-3-yl]methanesulfonamide]	104
COCC1(c2ncc(F)cc2-c2c(F)cccc2F)CC(N2C[C@@H](NS(C)(=O)=O)C(F)(F)C2)=NO1 (stereo partly drawn) [Example 131, N-[(3R)-1-{5-[3-(2,6-difluorophenyl)-5-fluoropyridin-2-yl]-5-(methoxymethyl)-4,5-dihydro-1,2-oxazol-3-yl}-4,4-difluoropyrrolidin-3-yl]methanesulfonamide]	112
